Test results reported in patent US8754054B2, “Antibacterial compounds, methods of making them, and uses thereof” (Albany Molecular Research, Inc., priority 2010, dated 2014).
In brackets after ≈: the same amount, converted by molar mass.

Tested on: MRSA 43300
Assay: Antibacterial activity, NCCLS dilution method (Table 9)
Assay type: cell-based, S. aureus
Conditions: Staphylococcus aureus, MRSA, MRSA 43300; dilution method; labels marked a tested as a mixture of diastereomers; read-out: MRSA 43300 MIC
From the text: NCCLS standards for antimicrobial susceptibility testing using the dilution method were followed. See: Performance Standards for Antimicrobial Susceptibility Testing; Fourteenth Informational Supplement. NCCLS Document M100-S14 (ISBN 1-56238-516-X), 2004. NCCLS, 940 West Valley Road, Suite 1400, Wayne, Pa. 19087-1898 USA, 2004; Methods for Dilution Antimicrobial Susceptibility Tests for Bacteria that Grow Aerobically; Approved Standard—Sixth Edition. NCCLS document M7-A6 (IBSBN 1-56238-486-4), NCCLS, 940 West Valley Road, Suite 1400, Wayne, Pa. 19087-1898 USA, 2003, which are hereby incorporated by reference in their entirety.

Compound | MIC [µg/mL]
CO/N=C1/[C@@H](OC)[C@H](C)O[C@H](NC2=CC(=O)c3c(cc4c(c3O)C(=O)[C@]3(OC)[C@H](O)Cc5cc(C)c(C(=O)OC)c(O)c5[C@]3(O)C4=O)C2=O)[C@@H]1OC [Example 50, (6R,6aS,14aR)-Methyl 11-((2S,3R,5R,6S,Z)-3,5-dimethoxy-4-(methoxyimino)-6-methyltetrahydro-2H-pyran-2-ylamino)-1,6,8,14a-tetrahydroxy-6a-methoxy-3-methyl-7,9,12,14-tetraoxo-5,6,6a,7,9,12,14,14a-octahydrobenzo[a]tetracene-2-carboxylate] | 0.25 (≈ 0.345 µM)
CO[C@@H]1[C@@H](O)[C@@H](OC)C(NC2=CC(=O)c3c(cc4c(c3O)C(=O)[C@]3(OC)[C@H](O)Cc5cc(C)c(C(=O)NCc6ccc(F)cc6)c(O)c5[C@]3(O)C4=O)C2=O)O[C@H]1C (mixture of isomers) [Example 26, (6R,6aS,14aR)—N-(4-Fluorobenzyl)-1,6,8,14a-tetrahydroxy-11-((3R,4R,5R,6S)-4-hydroxy-3,5-dimethoxy-6-methyltetrahydro-2H-pyran-2-ylamino)-6a-methoxy-3-methyl-7,9,12,14-tetraoxo-5,6,6a,7,9,12,14,14a-octahydrobenzo[a]tetracene-2-carboxamide] | 0.5 (≈ 0.632 µM)
CO[C@@H]1[C@@H](O)[C@@H](OC)C(NC2=CC(=O)c3c(cc4c(c3O)C(=O)[C@]3(OC)[C@H](O)Cc5cc(C)c(C(=O)NCCO)c(O)c5[C@]3(O)C4=O)C2=O)O[C@H]1C (mixture of isomers) [Example 24, (6R,6aS,14aR)-1,6,8,14a-Tetrahydroxy-11-((3R,4R,5R,6S)-4-hydroxy-3,5-dimethoxy-6-methyltetrahydro-2H-pyran-2-ylamino)-N-(2-hydroxyethyl)-6a-methoxy-3-methyl-7,9,12,14-tetraoxo-5,6,6a,7,9,12,14,14a-octahydrobenzo[a]tetracene-2-carboxamide] | 32 (≈ 44 µM)
COc1ccc(CNC(=O)c2c(C)cc3c(c2O)[C@]2(O)C(=O)c4cc5c(c(O)c4C(=O)[C@]2(OC)[C@H](O)C3)C(=O)C=C(N[C@H]2O[C@@H](C)[C@H](OC)[C@@H](O)[C@H]2OC)C5=O)cc1 [Example 28, (6R,6aS,14aR)-1,6,8,14a-Tetrahydroxy-11-((3R,4R,5R,6S)-4-hydroxy-3,5-dimethoxy-6-methyltetrahydro-2H-pyran-2-ylamino)-6a-methoxy-N-(4-methoxybenzyl)-3-methyl-7,9-12-14-tetraoxo-5,6,6a,7,9,12,14,14a-octahydrobenzo[a]tetracene-2-carboxamide] | 0.5 (≈ 0.623 µM)
COC(=O)c1c(C)cc2c(c1O)[C@]1(O)C(=O)c3cc4c(c(O)c3C(=O)[C@]1(OC)[C@H](O)C2)C(=O)C=C(N[C@H]1O[C@@H](C)[C@H](OC)[C@@H](O)[C@H]1OC)C4(C)O (single isomer, unassigned) [Example 55] | 32 (≈ 44.8 µM)
COC(=O)c1c(C)cc2c(c1OCC(=O)OCc1ccccc1)[C@]1(O)C(=O)c3cc4c(c(O)c3C(=O)[C@]1(OC)[C@H](O)C2)C(=O)C=C(N[C@H]1O[C@@H](C)[C@H](OC)[C@@H](O)[C@H]1OC)C4=O [Example 8, (6R,6aS,14aR)-Methyl 1-(2-(benzyloxy)-2-oxoethoxy)-6,8,14a-trihydroxy-11-((2S,3R,4R,5R,6S)-4-hydroxy-3,5-dimethoxy-6-methyltetrahydro-2H-pyran-2-ylamino)-6a-methoxy-3-methyl-7,9,12,14-tetraoxo-5,6,6a,7,9,12,14,14a-octahydrobenzo[a]tetracene-2-carboxylate] | 1 (≈ 1.18 µM)
CO[C@@H]1[C@@H](O)[C@@H](OC)C(NC2=CC(=O)c3c(cc4c(c3O)C(=O)[C@]3(OC)[C@H](O)Cc5cc(C)c(C(=O)NC6CCCCC6)c(O)c5[C@]3(O)C4=O)C2=O)O[C@H]1C (mixture of isomers) [Example 18, (6R,6aS,14aR)—N-Cyclohexyl-1,6,8,14a-tetrahydroxy-11-((3R,4R,5R,6S)-4-hydroxy-3,5-dimethoxy-6-methyltetrahydro-2H-pyran-2-ylamino)-6a-methoxy-3-methyl-7,9,12,14-tetraoxo-5,6,6a,7,9,12,14,14a-octahydrobenzo[a]tetracene-2-carboxamide] | 2 (≈ 2.62 µM)
